This passage reports plasma half-life and oral bioavailability results from patent EP1127071B1, “COMPOUNDS WITH GROWTH HORMONE RELEASING PROPERTIES” (Novo Nordisk A/S, priority 1998, dated 2000).

The data set is described as follows: Pharmacokinetics after intravenous and oral administration in fasted Beagle dogs. Type of data set: in vivo. The settings on record: compared with the compound of example 408 of WO 9723508. The procedure: The pharmakokinetic data were obtained by the following procedure:
The pharmacokinetics of the test compounds were Investigated in fasted Beagle dogs.
Intravenous and oral administration of the test compound, in 5% glucose solution, was separated by a one-week washout.
Blood samples were collected immediately before drug administration (time zero) and than 0.08, 0.25, 0.50, 0.75, 1.0, 1.5. 2.0, 3.0, 4.0, 5.0, and 6.0 hours after administration.
The plasma samples were stored frozen (<-18°C) pending analysis.
An HPLC method with solid phase extraction and W detection was used for the quantification of the compound in plasma.
The pharmacokinetic parameters for the compounds were calculated by non-compartmental methods using the PC based pharmacokinetic software WinNonlin, version 1.1 (Scientific Consulting Inc., Apex, NC, USA).

As for `CN(CCc1ccccn1)C(=O)[C@@H](Cc1ccccc1)N(C)C(=O)[C@@H](Cc1ccc2ccccc2c1)N(C)C(=O)/C=C/CC(C)(C)N` [Example 1, (2E)-5-Amino-5-methylhex-2-enoic acid N-methyl-N-[(1R)-1-(N-methyl-N-{(1R)-1-[N-methyl-N-(2-(2-pyridinyl)ethyl)carbamoyl]-2-phenylethyl}carbamoyl)-2-(2-naphthyl)ethyl]amide], for the setting “administration in 5% glucose solution”, the plasma half-life result is listed as “shorter plasma half-life”. For the same compound, for the setting “oral vs intravenous administration in 5% glucose solution”, the oral bioavailability result is reported as “better oral bioavailability”.
